# System: LG0703-F948-PDC complex spheroid viability
# Assay: Anticancer human tumor LG0703-F948-PDC patient-derived lung adenocarcinoma cell line growth inhibition
# Details: for IC50: curve of first compound; for viability, T/C: stronger effect = lower value
# Summary of the method: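 Drug combinations with the LSD1 inhibitor iadademstat tested on tumor cells co-cultured as spheroids with endothelial cells and mesenchymal stem cells. Concentrations descended in half-log increments from clinical Cmax or 10 microM.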
# [1] = second compound 0.1 µM, first compound 0.0316 µM
# [2] = second compound 0.1 µM, first compound 0.1 µM
# [3] = second compound 0.1 µM, first compound 0.316 µM
# [4] = second compound 0.1 µM, first compound 1 µM
# [5] = second compound 0.1 µM, first compound 3.16 µM
# [6] = second compound 0.1 µM, first compound 10 µM
# [7] = second compound 0.316 µM, first compound 0.0316 µM
# [8] = second compound 0.316 µM, first compound 0.1 µM
# [9] = second compound 0.316 µM, first compound 0.316 µM
# [10] = second compound 0.316 µM, first compound 1 µM
# [11] = second compound 0.316 µM, first compound 3.16 µM
# [12] = second compound 0.316 µM, first compound 10 µM
# [13] = second compound 1 µM, first compound 0.0316 µM
# [14] = second compound 1 µM, first compound 0.1 µM
# [15] = second compound 1 µM, first compound 0.316 µM
# [16] = second compound 1 µM, first compound 1 µM
# [17] = second compound 1 µM, first compound 3.16 µM
# [18] = second compound 1 µM, first compound 10 µM
# [19] = second compound 3.16 µM, first compound 0.0316 µM
# [20] = second compound 3.16 µM, first compound 0.1 µM
# [21] = second compound 3.16 µM, first compound 0.316 µM
# [22] = second compound 3.16 µM, first compound 1 µM
# [23] = second compound 3.16 µM, first compound 3.16 µM
# [24] = second compound 3.16 µM, first compound 10 µM
# [25] = second compound 10 µM, first compound 0.0316 µM
# [26] = second compound 10 µM, first compound 0.1 µM
# [27] = second compound 10 µM, first compound 0.316 µM
# [28] = second compound 10 µM, first compound 1 µM
# [29] = second compound 10 µM, first compound 3.16 µM
# [30] = second compound 10 µM, first compound 10 µM
# [31] = second compound 0.1 µM, first compound 0.00949 µM
# [32] = second compound 0.1 µM, first compound 0.03 µM
# [33] = second compound 0.1 µM, first compound 0.0949 µM
# [34] = second compound 0.1 µM, first compound 0.3 µM
# [35] = second compound 0.316 µM, first compound 0.00949 µM
# [36] = second compound 0.316 µM, first compound 0.03 µM
# [37] = second compound 0.316 µM, first compound 0.0949 µM
# [38] = second compound 0.316 µM, first compound 0.3 µM
# [39] = second compound 1 µM, first compound 0.00949 µM
# [40] = second compound 1 µM, first compound 0.03 µM
# [41] = second compound 1 µM, first compound 0.0949 µM
# [42] = second compound 1 µM, first compound 0.3 µM
# [43] = second compound 3.16 µM, first compound 0.00949 µM
# [44] = second compound 3.16 µM, first compound 0.03 µM
# [45] = second compound 3.16 µM, first compound 0.0949 µM
# [46] = second compound 3.16 µM, first compound 0.3 µM
# [47] = second compound 10 µM, first compound 0.00949 µM
# [48] = second compound 10 µM, first compound 0.03 µM
# [49] = second compound 10 µM, first compound 0.0949 µM
# [50] = second compound 10 µM, first compound 0.3 µM
# 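Note: spheroids exposed to agents for seven days before readout.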
# 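Throughout, for viability, T/C: 100% = DMSO vehicle control wells as normalization base.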
smiles,measurement,setting,value
CC1(C)CCC(CN2CCN(c3ccc(C(=O)NS(=O)(=O)c4ccc(NCC5CCOCC5)c([N+](=O)[O-])c4)c(Oc4cnc5[nH]ccc5c4)c3)CC2)=C(c2ccc(Cl)cc2)C1 + NC1CCC(NC2CC2c2ccccc2)CC1,IC50,second compound 0.1 µM,2380 nM
same,IC50,second compound 0.316 µM,2180 nM
same,IC50,second compound 1 µM,2550 nM
same,IC50,second compound 3.16 µM,2630 nM
same,IC50,second compound 10 µM,2360 nM
same,"viability, T/C",[1],107%
same,"viability, T/C",[2],90.9%
same,"viability, T/C",[3],85.2%
same,"viability, T/C",[4],99.4%
same,"viability, T/C",[5],34.9%
same,"viability, T/C",[6],2.77%
same,"viability, T/C",[7],97.3%
same,"viability, T/C",[8],99.2%
same,"viability, T/C",[9],102%
same,"viability, T/C",[10],112%
same,"viability, T/C",[11],24.9%
same,"viability, T/C",[12],2.76%
same,"viability, T/C",[13],100%
same,"viability, T/C",[14],119%
same,"viability, T/C",[15],117%
same,"viability, T/C",[16],103%
same,"viability, T/C",[17],37.8%
same,"viability, T/C",[18],2.92%
same,"viability, T/C",[19],126%
same,"viability, T/C",[20],119%
same,"viability, T/C",[21],135%
same,"viability, T/C",[22],118%
same,"viability, T/C",[23],36.9%
same,"viability, T/C",[24],2.37%
same,"viability, T/C",[25],112%
same,"viability, T/C",[26],114%
same,"viability, T/C",[27],104%
same,"viability, T/C",[28],99.1%
same,"viability, T/C",[29],33.4%
same,"viability, T/C",[30],2.95%
CC1COCCN1c1cc(C2(S(C)(=N)=O)CC2)nc(-c2ccnc3[nH]ccc23)n1 (stereo not given) + NC1CCC(NC2CC2c2ccccc2)CC1,IC50,second compound 0.1 µM,4990 nM
same,IC50,second compound 0.316 µM,4800 nM
same,IC50,second compound 1 µM,5730 nM
same,IC50,second compound 3.16 µM,4930 nM
same,IC50,second compound 10 µM,4130 nM
same,"viability, T/C",[1],107%
same,"viability, T/C",[2],108%
same,"viability, T/C",[3],103%
same,"viability, T/C",[4],94.4%
same,"viability, T/C",[5],64%
same,"viability, T/C",[6],28.4%
same,"viability, T/C",[7],111%
same,"viability, T/C",[8],112%
same,"viability, T/C",[9],94.8%
same,"viability, T/C",[10],96.3%
same,"viability, T/C",[11],59.5%
same,"viability, T/C",[12],30%
same,"viability, T/C",[13],113%
same,"viability, T/C",[14],104%
same,"viability, T/C",[15],99.6%
same,"viability, T/C",[16],100%
same,"viability, T/C",[17],77.5%
same,"viability, T/C",[18],23.8%
same,"viability, T/C",[19],122%
same,"viability, T/C",[20],118%
same,"viability, T/C",[21],117%
same,"viability, T/C",[22],96.4%
same,"viability, T/C",[23],66%
same,"viability, T/C",[24],25.5%
same,"viability, T/C",[25],131%
same,"viability, T/C",[26],129%
same,"viability, T/C",[27],110%
same,"viability, T/C",[28],88.1%
same,"viability, T/C",[29],63.8%
same,"viability, T/C",[30],14.2%
CCN(c1cc(-c2ccc(CN3CCOCC3)cc2)cc(C(=O)NCc2c(C)cc(C)[nH]c2=O)c1C)C1CCOCC1 + NC1CCC(NC2CC2c2ccccc2)CC1,IC50,second compound 0.1 µM,> 3000 nM
same,IC50,second compound 0.316 µM,> 3000 nM
same,IC50,second compound 1 µM,> 3000 nM
same,IC50,second compound 3.16 µM,> 3000 nM
same,IC50,second compound 10 µM,> 3000 nM
same,"viability, T/C",[31],105%
same,"viability, T/C",[32],106%
same,"viability, T/C",[33],96.2%
same,"viability, T/C",[34],108%
same,"viability, T/C","second compound 0.1 µM, first compound 0.949 µM",119%
same,"viability, T/C","second compound 0.1 µM, first compound 3 µM",128%
same,"viability, T/C",[35],107%
same,"viability, T/C",[36],130%
same,"viability, T/C",[37],106%
same,"viability, T/C",[38],112%
same,"viability, T/C","second compound 0.316 µM, first compound 0.949 µM",111%
same,"viability, T/C","second compound 0.316 µM, first compound 3 µM",112%
same,"viability, T/C",[39],128%
same,"viability, T/C",[40],116%
same,"viability, T/C",[41],113%
same,"viability, T/C",[42],133%
same,"viability, T/C","second compound 1 µM, first compound 0.949 µM",128%
same,"viability, T/C","second compound 1 µM, first compound 3 µM",127%
same,"viability, T/C",[43],124%
same,"viability, T/C",[44],131%
same,"viability, T/C",[45],144%
same,"viability, T/C",[46],138%
same,"viability, T/C","second compound 3.16 µM, first compound 0.949 µM",121%
same,"viability, T/C","second compound 3.16 µM, first compound 3 µM",141%
same,"viability, T/C",[47],120%
same,"viability, T/C",[48],131%
same,"viability, T/C",[49],134%
same,"viability, T/C",[50],118%
same,"viability, T/C","second compound 10 µM, first compound 0.949 µM",118%
same,"viability, T/C","second compound 10 µM, first compound 3 µM",105%
Nc1ncn(C2CC(O)C(CO)S2)c(=O)n1 (stereo not given) + NC1CCC(NC2CC2c2ccccc2)CC1,IC50,second compound 0.1 µM,> 300 nM
same,IC50,second compound 0.316 µM,> 300 nM
same,IC50,second compound 1 µM,> 300 nM
same,IC50,second compound 3.16 µM,> 300 nM
same,IC50,second compound 10 µM,> 300 nM
same,"viability, T/C","second compound 0.1 µM, first compound 0.000949 µM",114%
same,"viability, T/C","second compound 0.1 µM, first compound 0.003 µM",117%
same,"viability, T/C",[31],107%
same,"viability, T/C",[32],120%
same,"viability, T/C",[33],113%
same,"viability, T/C",[34],99.9%
same,"viability, T/C","second compound 0.316 µM, first compound 0.000949 µM",124%
same,"viability, T/C","second compound 0.316 µM, first compound 0.003 µM",123%
same,"viability, T/C",[35],121%
same,"viability, T/C",[36],113%
same,"viability, T/C",[37],128%
same,"viability, T/C",[38],99.8%
same,"viability, T/C","second compound 1 µM, first compound 0.000949 µM",112%
same,"viability, T/C","second compound 1 µM, first compound 0.003 µM",115%
same,"viability, T/C",[39],118%
same,"viability, T/C",[40],122%
same,"viability, T/C",[41],123%
same,"viability, T/C",[42],104%
same,"viability, T/C","second compound 3.16 µM, first compound 0.000949 µM",121%
same,"viability, T/C","second compound 3.16 µM, first compound 0.003 µM",125%
same,"viability, T/C",[43],115%
same,"viability, T/C",[44],121%
same,"viability, T/C",[45],137%
same,"viability, T/C",[46],119%
same,"viability, T/C","second compound 10 µM, first compound 0.000949 µM",116%
same,"viability, T/C","second compound 10 µM, first compound 0.003 µM",126%
same,"viability, T/C",[47],115%
same,"viability, T/C",[48],107%
same,"viability, T/C",[49],113%
same,"viability, T/C",[50],108%
O=C(C=Cn1cnc(-c2cc(C(F)(F)F)cc(C(F)(F)F)c2)n1)NNc1cnccn1 + NC1CCC(NC2CC2c2ccccc2)CC1,IC50,second compound 0.1 µM,< 3.16 nM
same,IC50,second compound 0.316 µM,< 3.16 nM
same,IC50,second compound 1 µM,9.15 nM
same,IC50,second compound 3.16 µM,29 nM
same,IC50,second compound 10 µM,< 3.16 nM
same,"viability, T/C","second compound 0.1 µM, first compound 0.00316 µM",45.3%
same,"viability, T/C","second compound 0.1 µM, first compound 0.01 µM",50.8%
same,"viability, T/C",[1],37.8%
same,"viability, T/C",[2],33%
same,"viability, T/C",[3],30.6%
same,"viability, T/C",[4],25.1%
same,"viability, T/C","second compound 0.316 µM, first compound 0.00316 µM",47.3%
same,"viability, T/C","second compound 0.316 µM, first compound 0.01 µM",47.5%
same,"viability, T/C",[7],43.8%
same,"viability, T/C",[8],31.8%
same,"viability, T/C",[9],33%
same,"viability, T/C",[10],33.9%
same,"viability, T/C","second compound 1 µM, first compound 0.00316 µM",56.6%
same,"viability, T/C","second compound 1 µM, first compound 0.01 µM",50.1%
same,"viability, T/C",[13],44.5%
same,"viability, T/C",[14],37.6%
same,"viability, T/C",[15],29.7%
same,"viability, T/C",[16],33.8%
same,"viability, T/C","second compound 3.16 µM, first compound 0.00316 µM",58.4%
same,"viability, T/C","second compound 3.16 µM, first compound 0.01 µM",57.2%
same,"viability, T/C",[19],48.3%
same,"viability, T/C",[20],41.1%
same,"viability, T/C",[21],32.8%
same,"viability, T/C",[22],30.2%
same,"viability, T/C","second compound 10 µM, first compound 0.00316 µM",41.7%
same,"viability, T/C","second compound 10 µM, first compound 0.01 µM",45.7%
same,"viability, T/C",[25],45.7%
same,"viability, T/C",[26],44.9%
same,"viability, T/C",[27],37.4%
same,"viability, T/C",[28],23.5%

# Reference: PubChem BioAssay AID1918952 (Molecular Pharmacology Branch, DTP, NCI, 2023)
